Results as given in patent publication US20190345138A1, “HETEROCYCLIC AMIDES AS KINASE INHIBITORS” (GlaxoSmithKline Intellectual Property Development Limited, priority 2016, published 2019).
Values joined by “and” are separate entries in the source; they are usually repeats but may differ in a detail not shown here. Equal entries are not always repeated.

Experiments:
RIP1 kinase = molecular target: T1, RIP1 kinase (Homo sapiens, UniProt Q13546); assay: fluorescent polarization based binding assay; conditions: mean of a minimum of 2 experiments
T1 sequence (Q13546 1-375 limits assumed): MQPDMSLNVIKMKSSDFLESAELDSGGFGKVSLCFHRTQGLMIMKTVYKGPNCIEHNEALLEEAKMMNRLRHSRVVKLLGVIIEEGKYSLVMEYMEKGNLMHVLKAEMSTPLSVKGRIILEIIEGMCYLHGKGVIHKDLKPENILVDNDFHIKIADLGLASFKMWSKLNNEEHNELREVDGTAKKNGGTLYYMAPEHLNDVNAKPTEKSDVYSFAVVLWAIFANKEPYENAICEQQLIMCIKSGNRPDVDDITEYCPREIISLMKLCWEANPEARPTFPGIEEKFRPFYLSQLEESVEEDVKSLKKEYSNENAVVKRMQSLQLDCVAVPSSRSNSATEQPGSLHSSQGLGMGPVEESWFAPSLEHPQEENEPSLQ
Description: A fluorescent polarization based binding assay was used to assess the activity of the compounds of this invention, the details of which are disclosed in International Patent Appln. No. PCT/IB2014/059004, now, International Patent Appln. Pub.

[1] = test system: human monocytic leukemia U937 cells; assay: necroptosis assay in U937 cells; type: cell-based; conditions: Homo sapiens, U-937, U937 cells; viability by cellular ATP (Cell Titer-Glo); read-out: pIC50, inhibited necrosis in U937 cells (converted)
How it was run: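 Necroptosis was induced in human U937 or mouse L929 cells, and viability was quantified as cellular ATP with Cell Titer-Glo. Data are means±standard deviation.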

| SMILES | IC50 (RIP1 kinase) | IC50 [1] [nM] |
| --- | --- | --- |
| N#Cc1cnc(N2CCC(C(=O)N3N=CC[C@H]3c3cc(F)ccc3F)CC2)cn1 [Example 103, (S)-5-(4-(5-(2,5-difluorophenyl)-4,5-dihydro-1H-pyrazole-1-carbonyl)piperidin-1-yl)pyrazine-2-carbonitrile] | 1 to 31.6 nM and 1 to 10 nM | 1 to 100 |
| COc1cc(N2CCC(C(=O)N3N=CC[C@H]3c3cc(F)ccc3F)CC2)ncn1 [Example 105, (S)-(5-(2,5-difluorophenyl)-4,5-dihydro-1H-pyrazol-1-yl)(1-(6-methoxypyrimidin-4-yl)piperidin-4-yl)methanone] | 1 to 31.6 nM and 1 to 10 nM | 1 to 100 |
| CCOC(=O)c1coc(N2CCC(C(=O)N3N=CC[C@H]3c3cc(F)cc(F)c3)CC2)n1 [Example 106, (S)-ethyl 2-(4-(5-(3,5-difluorophenyl)-4,5-dihydro-1H-pyrazole-1-carbonyl)piperidin-1-yl)oxazole-4-carboxylate] | 1 to 31.6 nM and 1 to 10 nM | 1 to 100 |
| Nc1nc(N2CCC(C(=O)N3N=CC[C@H]3c3cncc(F)c3)CC2)ncc1F [Example 112, (S)-(1-(4-amino-5-fluoropyrimidin-2-yl)piperidin-4-yl)(5-(5-fluoropyridin-3-yl)-4,5-dihydro-1H-pyrazol-1-yl)methanone] | 1 to 31.6 nM | 1 to 100 |
| N#Cc1nccc(N2CCC(C(=O)N3N=CC[C@H]3c3cncc(F)c3)CC2)n1 [Example 115, (S)-4-(4-(5-(5-fluoropyridin-3-yl)-4,5-dihydro-1H-pyrazole-1-carbonyl)piperidin-1-yl)pyrimidine-2-carbonitrile] | 1 to 31.6 nM | 1 to 100 |
| O=C(C1CCN(c2ccn3nccc3n2)CC1)N1N=CC[C@H]1c1cncc(F)c1 [Example 116, (S)-(5-(5-fluoropyridin-3-yl)-4,5-dihydro-1H-pyrazol-1-yl)(1-(pyrazolo[1,5-a]pyrimidin-5-yl)piperidin-4-yl)methanone] | 1 to 31.6 nM | 1 to 100 |
| O=C(C1CCN(c2ccc3nccn3n2)CC1)N1N=CC[C@H]1c1cncc(F)c1 [Example 117, (S)-(5-(5-fluoropyridin-3-yl)-4,5-dihydro-1H-pyrazol-1-yl)(1-(imidazo[1,2-b]pyridazin-6-yl)piperidin-4-yl)methanone] | 1 to 31.6 nM | 1 to 100 |
| NC(=O)c1cnc(N2CCC(C(=O)N3N=CC[C@H]3c3cc(F)ccc3F)CC2)nc1 [Example 123, (S)-2-(4-(5-(2,5-difluorophenyl)-4,5-dihydro-1H-pyrazole-1-carbonyl)piperidin-1-yl)pyrimidine-5-carboxamide] | 1 to 31.6 nM | 1 to 100 |
| NC(=O)c1nc(N2CCC(C(=O)N3N=CC[C@H]3c3cncc(F)c3)CC2)ncc1Cl [Example 124, (S)-5-chloro-2-(4-(5-(5-fluoropyridin-3-yl)-4,5-dihydro-1H-pyrazole-1-carbonyl)piperidin-1-yl)pyrimidine-4-carboxamide] | 1 to 31.6 nM | 1 to 100 |
| O=C(NCCO)c1ccnc(N2CCC(C(=O)N3N=CC[C@H]3c3ccccc3)CC2)n1 [Example 126, (S)-N-(2-hydroxyethyl)-2-(4-(5-phenyl-4,5-dihydro-1H-pyrazole-1-carbonyl)piperidin-1-yl)pyrimidine-4-carboxamide] | 1 to 31.6 nM | 1 to 100 |
| O=C(C1CCN(c2ncc(F)c(OCCN3CCOCC3)n2)CC1)N1N=CC[C@H]1c1ccccc1 [Example 127, (S)-(1-(5-fluoro-4-(2-morpholinoethoxy)pyrimidin-2-yl)piperidin-4-yl)(5-phenyl-4,5-dihydro-1H-pyrazol-1-yl)methanone] | 1 to 31.6 nM and 1 to 10 nM | 1 to 100 |
| O=C(C1CCN(c2ncc(O)cn2)CC1)N1N=CC[C@H]1c1ccccc1 [Example 128, (S)-(1-(5-hydroxypyrimidin-2-yl)piperidin-4-yl)(5-phenyl-4,5-dihydro-1H-pyrazol-1-yl)methanone] | 1 to 31.6 nM | 1 to 100 |
| O=C(C1CCN(c2nccc(CO)n2)CC1)N1N=CC[C@H]1c1ccccc1 [Example 130, (S)-(1-(4-(hydroxymethyl)pyrimidin-2-yl)piperidin-4-yl)(5-phenyl-4,5-dihydro-1H-pyrazol-1-yl)methanone] | 1 to 31.6 nM | 1 to 100 |
| N#Cc1cnc(N2CCC(C(=O)N3N=CC[C@H]3c3cc(F)cc(F)c3)CC2)o1 [Example 133, (S)-2-(4-(5-(3,5-difluorophenyl)-4,5-dihydro-1H-pyrazole-1-carbonyl)piperidin-1-yl)oxazole-5-carbonitrile] | 1 to 31.6 nM and 1 to 10 nM | 1 to 100 |
| NC(=O)c1coc(N2CCC(C(=O)N3N=CC[C@H]3c3cc(F)cc(F)c3)CC2)n1 [Example 134, (S)-2-(4-(5-(3,5-difluorophenyl)-4,5-dihydro-1H-pyrazole-1-carbonyl)piperidin-1-yl)oxazole-4-carboxamide] | 1 to 31.6 nM | 1 to 100 |
| N#Cc1coc(N2CCC(C(=O)N3N=CC[C@H]3c3cc(F)cc(F)c3)CC2)n1 [Example 135, (S)-2-(4-(5-(3,5-difluorophenyl)-4,5-dihydro-1H-pyrazole-1-carbonyl)piperidin-1-yl)oxazole-4-carbonitrile] | 1 to 31.6 nM and 1 to 10 nM | 1 to 100 |
| N#Cc1coc(N2CCC(C(=O)N3N=CC[C@H]3c3ccccc3)CC2)n1 [Example 137, (S)-2-(4-(5-phenyl-4,5-dihydro-2H-pyrazole-1-carbonyl)piperidin-1-yl)oxazole-4-carbonitrile] | 1 to 31.6 nM and 1 to 10 nM | 1 to 100 |
| N#Cc1cnc(N2CCC(C(=O)N3N=CC[C@H]3c3ccccc3)CC2)o1 [Example 138, (S)-2-(4-(5-phenyl-4,5-dihydro-1H-pyrazole-1-carbonyl)piperidin-1-yl)oxazole-5-carbonitrile] | 1 to 31.6 nM and 1 to 10 nM | 1 to 100 |
| O=C(C1CCN(c2ncc3[nH]cnc3n2)CC1)N1N=CC[C@H]1c1cc(F)cc(F)c1 [Example 139, (S)-(1-(7H-purin-2-yl)piperidin-4-yl)(5-(3,5-difluorophenyl)-4,5-dihydro-1H-pyrazol-1-yl)methanone] | 1 to 31.6 nM | 1 to 100 |
| O=C(C1CCN(c2nccc(C3=NCCN3)n2)CC1)N1N=CC[C@H]1c1ccccc1 [Example 140, (S)-(1-(4-(4,5-dihydro-1H-imidazol-2-yl)pyrimidin-2-yl)piperidin-4-yl)(5-phenyl-4,5-dihydro-1H-pyrazol-1-yl)methanone] | 1 to 31.6 nM and 1 to 10 nM | 1 to 100 |
| CN1CCN(C(=O)c2ccnc(N3CCC(C(=O)N4N=CC[C@H]4c4ccccc4)CC3)n2)CC1 [Example 141, (S)-(4-methylpiperazin-1-yl)(2-(4-(5-phenyl-4,5-dihydro-1H-pyrazole-1-carbonyl)piperidin-1-yl)pyrimidin-4-yl)methanone] | 1 to 31.6 nM | 1 to 100 |
| CCN(CC)C(=O)c1ccnc(N2CCC(C(=O)N3N=CC[C@H]3c3ccccc3)CC2)n1 [Example 142, (S)-N,N-diethyl-2-(4-(5-phenyl-4,5-dihydro-1H-pyrazole-1-carbonyl)piperidin-1-yl)pyrimidine-4-carboxamide] | 1 to 31.6 nM and 1 to 10 nM | 1 to 100 |
| CC(=O)N1CCC(NC(=O)c2ccnc(N3CCC(C(=O)N4N=CC[C@H]4c4ccccc4)CC3)n2)CC1 [Example 144, (S)-N-(1-acetylpiperidin-4-yl)-2-(4-(5-phenyl-4,5-dihydro-1H-pyrazole-1-carbonyl)piperidin-1-yl)pyrimidine-4-carboxamide] | 1 to 31.6 nM | 1 to 100 |
| O=C(c1ccnc(N2CCC(C(=O)N3N=CC[C@H]3c3ccccc3)CC2)n1)N1CCOCC1 [Example 145, (S)-(1-(4-(morpholine-4-carbonyl)pyrimidin-2-yl)piperidin-4-yl)(5-phenyl-4,5-dihydro-1H-pyrazol-1-yl)methanone] | 1 to 31.6 nM | 1 to 100 |
| O=C(c1ccnc(N2CCC(C(=O)N3N=CC[C@H]3c3ccccc3)CC2)n1)N1CCNCC1 [Example 146, (S)-(5-phenyl-4,5-dihydro-1H-pyrazol-1-yl)(1-(4-(piperazine-1-carbonyl)pyrimidin-2-yl)piperidin-4-yl)methanone] | 1 to 31.6 nM | 1 to 100 |
| O=C(NC1CCNCC1)c1ccnc(N2CCC(C(=O)N3N=CC[C@H]3c3ccccc3)CC2)n1 [Example 147, (S)-2-(4-(5-phenyl-4,5-dihydro-1H-pyrazole-1-carbonyl)piperidin-1-yl)-N-(piperidin-4-yl)pyrimidine-4-carboxamide] | 1 to 31.6 nM | 1 to 100 |
| O=C1NCCC1c1nc(N2CCC(C(=O)N3N=CC[C@H]3c3ccccc3)CC2)ncc1F (stereo partly drawn) [Example 150, 3-(5-fluoro-2-(4-((S)-5-phenyl-4,5-dihydro-1H-pyrazole-1-carbonyl)piperidin-1-yl)pyrimidin-4-yl)pyrrolidin-2-one] | 1 to 31.6 nM and 1 to 10 nM | 1 to 100 |
| O=C(C1CCN(c2ncc(F)c(OCCO)n2)CC1)N1N=CC[C@H]1c1ccccc1 [Example 155, (S)-(1-(5-fluoro-4-(2-hydroxyethoxy)pyrimidin-2-yl)piperidin-4-yl)(5-phenyl-4,5-dihydro-1H-pyrazol-1-yl)methanone] | 1 to 31.6 nM | 1 to 100 |
| C#Cc1cc(N2CCC(C(=O)N3N=CC[C@H]3c3cc(F)cc(F)c3)CC2)ncn1 [Example 157, (S)-(5-(3,5-difluorophenyl)-4,5-dihydro-1H-pyrazol-1-yl)(1-(6-ethynylpyrimidin-4-yl)piperidin-4-yl)methanone] | 1 to 31.6 nM and 1 to 10 nM | 1 to 100 |
